Kd and IC50 data for five compounds are collected here from patent publication US20240287138A1, “CYCLIC PEPTIDES FOR INHIBITING TNF RECEPTOR 1 ACTIVITY” (Merck Sharp & Dohme LLC, priority 2023, published 2024).

Test [1] addresses T1, human TNFR1 extracellular domain (ECD) protein (Homo sapiens, UniProt P19438).
T1 construct: HRV 3C protease cleavage site (C); 6His (C, cleaved yes); made in house; host or cells: Sf21 insect cells (baculovirus), secreted
T1 sequence (P19438 30-211): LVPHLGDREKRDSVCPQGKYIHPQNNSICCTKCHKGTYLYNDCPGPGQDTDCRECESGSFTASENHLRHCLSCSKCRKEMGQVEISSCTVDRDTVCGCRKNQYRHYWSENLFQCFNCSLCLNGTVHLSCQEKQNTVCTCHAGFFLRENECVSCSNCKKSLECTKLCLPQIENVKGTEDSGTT
Description: SPR binding affinity to captured human TNFR1 ECD. The gist of the method:
(§1)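 Insect-cell human receptor ECDs, enzymatically biotinylated, immobilized via streptavidin capture chip. Peptide binding and dissociation measured in RU in pH 7.4 HEPES buffer containing 2% DMSO; chip regenerated per analyte. Rate constants give affinity.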
Background: In SPR one partner is held on a chip, and binding of the other changes the refractive index at the surface.

Another test addresses T2, human TNFR2 ECD protein (Homo sapiens, UniProt P20333).
T2 construct: HRV 3C protease cleavage site (C); 6His (C, cleaved yes); made in house; host or cells: Sf21 insect cells (baculovirus), secreted
T2 sequence (P20333 23-257): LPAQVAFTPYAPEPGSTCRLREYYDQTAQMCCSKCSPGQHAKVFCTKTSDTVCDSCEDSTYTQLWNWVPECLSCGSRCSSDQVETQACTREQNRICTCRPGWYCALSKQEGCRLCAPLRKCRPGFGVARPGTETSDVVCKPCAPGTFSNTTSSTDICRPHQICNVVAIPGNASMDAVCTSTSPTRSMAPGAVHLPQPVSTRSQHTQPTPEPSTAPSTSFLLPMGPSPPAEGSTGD
Kind of test: SPR off-target binding (selectivity) to human TNFR2 ECD. The gist of the method: as §1

Test [2] has as its target T3, human soluble TNFR1 (sTNFR1) (Homo sapiens, UniProt P19438).
T3 construct: made in house; host or cells: Sf21 (baculovirus)
T3 sequence (P19438 with tags, fused parts or gaps): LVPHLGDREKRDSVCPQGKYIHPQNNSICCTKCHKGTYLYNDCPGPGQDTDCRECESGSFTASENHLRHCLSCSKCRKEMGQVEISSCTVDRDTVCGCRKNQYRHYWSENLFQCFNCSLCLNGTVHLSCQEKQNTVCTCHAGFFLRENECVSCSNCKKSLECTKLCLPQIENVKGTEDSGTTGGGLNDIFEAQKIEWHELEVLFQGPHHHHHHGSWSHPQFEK
Kind of test: Human sTNFR1-peptide displacement assay (LanthaScreen Eu TR-FRET binding assay). The gist of the method:
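Readout is the 665/615 nm TR-FRET ratio (Eu anti-His donor, streptavidin-Alexa647 acceptor), normalized to DMSO and saturating displacer, fit by Morrison-based five-parameter logistic for Kd^app. His-tagged sTNFR1 (1-211) prebound to 100 nM biotinylated peptide SEQ ID NO.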
Background: Time-resolved FRET reads energy transfer from a long-lived donor to a nearby acceptor.

Numbered stars: 1 amine (or outer) side, 2 acyl side, 3 side chain; on linkers, the order of the positions; unused ones are H or OH. Bridge positions count the residues as written; N and C are the ends. Square brackets hold non-standard residues; d marks the D form. Peptide text beside a SMILES is read from it. Trp(βS-Me,7-OMe) = COc1cccc2c([C@H](C)[C@H](N)C(=O)O)c[nH]c12; Trp(7-CN) = N#Cc1cccc2c(C[C@H](N)C(=O)O)c[nH]c12; Trp(7-Cl) = N[C@@H](Cc1c[nH]c2c(Cl)cccc12)C(=O)O; Phe(4-CONH2) = NC(=O)c1ccc(C[C@H](N)C(=O)O)cc1; Phe(4-COOH) = N[C@@H](Cc1ccc(C(=O)O)cc1)C(=O)O; Trp(7-aza) = N[C@@H](Cc1c[nH]c2ncccc12)C(=O)O; Pip(5R-OH) = O=C(O)[C@@H]1CC[C@@H](O)CN1; αMeW = C[C@](N)(Cc1c[nH]c2ccccc12)C(=O)O; X1 = O=C([C@@H]1CC[C@H](N[*:1])C1)[*:2]; X19 = O=C([C@H](Cc1ccncn1)N[*:1])[*:2]; X6 = O=C([C@@H](N[*:1])C1(O)CC1)[*:2]; Gly(N(CH2)3COOH) = O=C(O)CCCNCC(=O)O; 4Pal = N[C@@H](Cc1ccncc1)C(=O)O; NMeE = CN[C@@H](CCC(=O)O)C(=O)O; dHyp = O=C(O)[C@H]1C[C@H](O)CN1; aThr = C[C@H](O)[C@H](N)C(=O)O; Pip = O=C(O)[C@@H]1CCCCN1; αMeS = C[C@](N)(CO)C(=O)O; Nle = CCCC[C@H](N)C(=O)O; Sar = CNCC(=O)O

One may read the Kd as the concentration at which binding is half-saturated. Higher therefore signals weaker binding. What is called IC50 is the concentration that gives 50% inhibition. A low value points to higher potency.

`CCCC[C@@H]1NC(=O)[C@@H]2CC[C@@H](C2)NC(=O)[C@H]([C@@H](C)c2c[nH]c3c(OC)cccc23)NC(=O)CN(C)C(=O)[C@H](Cc2ccc(C(N)=O)cc2)NC(=O)[C@H](Cc2ccc(C(N)=O)cc2)NC(=O)[C@](C)(CO)NC(=O)[C@H](Cc2c[nH]c3c(C#N)cccc23)NC(=O)[C@H](Cc2ccc(C(=O)O)cc2)NC(=O)[C@H]([C@H](C)O)NC(=O)[C@H]2C[C@H](O)CN2C(=O)[C@H](Cc2c[nH]c3ncccc23)NC(=O)[C@@H]2CC[C@@H](O)CN2C(=O)[C@H](Cc2ccncc2)NC1=O` [SEQ ID NO. 122] (cyclo([4Pal][Pip(5R-OH)][Trp(7-aza)][dHyp][aThr][Phe(4-COOH)][Trp(7-CN)][αMeS][Phe(4-CONH2)][Phe(4-CONH2)][Sar][Trp(βS-Me,7-OMe)][X1][Nle])): the Kd in test [1] is 0.04 nM; on human TNFR2 ECD protein, over 1000 nM; in test [2], 0.08 nM.
`CCCC[C@@H]1NC(=O)[C@@H]2CC[C@@H](C2)NC(=O)[C@H]([C@@H](C)c2c[nH]c3c(OC)cccc23)NC(=O)CN(C)C(=O)[C@H](Cc2ccc(C(=O)O)cc2)NC(=O)[C@H](Cc2ccc(C(N)=O)cc2)NC(=O)[C@](C)(CO)NC(=O)[C@H](Cc2c[nH]c3c(Cl)cccc23)NC(=O)[C@H](Cc2ccncn2)NC(=O)[C@H](CC(N)=O)NC(=O)[C@H]2C[C@H](O)CN2C(=O)[C@H](Cc2c[nH]c3ncccc23)NC(=O)[C@@H]2CC[C@@H](O)CN2C(=O)[C@H](Cc2ccncc2)NC1=O` [SEQ ID NO. 159] (cyclo([4Pal][Pip(5R-OH)][Trp(7-aza)][dHyp]N[X19][Trp(7-Cl)][αMeS][Phe(4-CONH2)][Phe(4-COOH)][Sar][Trp(βS-Me,7-OMe)][X1][Nle])): the Kd in test [1] is 0.05 nM; at human TNFR2 ECD protein, over 1000 nM; in test [2], 0.12 nM.
Regarding `CCCC[C@@H]1NC(=O)[C@@H]2CC[C@@H](C2)NC(=O)[C@H]([C@@H](C)c2c[nH]c3c(OC)cccc23)NC(=O)CN(C)C(=O)[C@H](Cc2ccc(C(=O)O)cc2)NC(=O)[C@H](Cc2ccc(C(N)=O)cc2)NC(=O)[C@](C)(CO)NC(=O)[C@H](Cc2c[nH]c3c(Cl)cccc23)NC(=O)[C@H](Cc2ccncc2)NC(=O)[C@H]([C@H](C)O)NC(=O)[C@H]2C[C@H](O)CN2C(=O)[C@H](Cc2c[nH]c3ccccc23)NC(=O)[C@@H]2CC[C@@H](O)CN2C(=O)[C@H](Cc2ccncc2)NC1=O` [SEQ ID NO. 187] (cyclo([4Pal][Trp(7-Cl)][αMeS][Phe(4-CONH2)][Phe(4-COOH)][Sar][Trp(βS-Me,7-OMe)][X1][Nle][4Pal][Pip(5R-OH)]W[dHyp][aThr])), the values for the Kd (in test [1]; on human TNFR2 ECD protein; in test [2]) were 0.04 nM, over 1000 nM and 0.09 nM, respectively.
Regarding `CCCC[C@@H]1NC(=O)CSC[C@@H](C(N)=O)NC(=O)[C@H]([C@@H](C)c2c[nH]c3c(OC)cccc23)NC(=O)CN(C)C(=O)[C@H](Cc2ccc(O)cc2)NC(=O)[C@H](Cc2ccc(C(=O)O)cc2)NC(=O)[C@](C)(CO)NC(=O)[C@H](Cc2c[nH]c3c(Cl)cccc23)NC(=O)[C@H](Cc2ccncc2)NC(=O)[C@H](CC(N)=O)NC(=O)CN(CCCC(=O)O)C(=O)[C@H](Cc2c[nH]c3ncccc23)NC(=O)[C@@H]2CCCCN2C(=O)[C@H](Cc2ccncc2)NC1=O` [SEQ ID NO. 157] ({CH2CO}-[Nle][4Pal][Pip][Trp(7-aza)][Gly(N(CH2)3COOH)]N[4Pal][Trp(7-Cl)][αMeS][Phe(4-COOH)]Y[Sar][Trp(βS-Me,7-OMe)]C-NH2; thioether N-14), the results for the Kd (in test [1]; on human TNFR2 ECD protein; in test [2]) were 0.5 nM, over 1000 nM and 0.64 nM, respectively. The compound also gave an IC50 in test [2] of 0.72 nM.
Consider `CCCC[C@@H]1NC(=O)CSC[C@@H](C(N)=O)NC(=O)[C@](C)(Cc2c[nH]c3ccccc23)NC(=O)CN(C)C(=O)[C@H](Cc2ccc(O)cc2)NC(=O)[C@H](Cc2ccc(C(=O)O)cc2)NC(=O)[C@](C)(CO)NC(=O)[C@H](Cc2c[nH]c3c(Cl)cccc23)NC(=O)[C@H](Cc2ccncc2)NC(=O)[C@H](CC(N)=O)NC(=O)[C@H](CCC(=O)O)N(C)C(=O)[C@H](Cc2c[nH]c3ncccc23)NC(=O)[C@H](C2(O)CC2)NC(=O)[C@H](Cc2ccncc2)NC1=O` [SEQ ID NO. 281] ({CH2CO}-[Nle][4Pal][X6][Trp(7-aza)][NMeE]N[4Pal][Trp(7-Cl)][αMeS][Phe(4-COOH)]Y[Sar][αMeW]C-NH2; thioether N-14), for which the Kd is 0.5 nM in test [1] and over 1000 nM on human TNFR2 ECD protein. The IC50 in test [2] is 1.4 nM.
